“Also recorded” adds a separate entry of the source. Where a name gives a salt, the structure may show the parent alone.
Columns and labels:
[1] = tested on: normoglycemic rats; test: Oral glucose tolerance test in normoglycemic rats (Examples 27, 28); assay type: in vivo, Male Wistar rats; conditions: vs control group
Method: (§1) Male Wistar rats were utilized provided by Mato Grosso do Sul's Federal University's Biotherium. Until the experiments were carried out, the animals have had free access to feed and water. The room temperature was kept at 22±2° C. and the light/dark cycle was of 12 hours.
The glucose tolerance test is a reference method for the diagnosis of diabetes or glucose intolerance (5).
Distinct rat groups were orally treated, once a day, with 3-(carbohydrazyl-N′-phenylsubstituted)-1-benzosubstituted-β-carbolinic-3-carbohydrazide (compound 7a or ANIS-BZ) at doses: 0.5, 1 or 5 mg/kg or vehicle (control) for 3 days. Similarly, another rat group received metformin (reference drug used for lowering glucose serum levels) in a 300 mg/kg dose, orally, once a day for 3 days. The oral glucose tolerance test was carried out by administering of a glucose solution (2 g/kg body mass). Glycemia was determined at zero time (before oral administering) and at 60 minutes after the glucose overload.
Distinct groups of rats were treated orally, once a day, with N(-ethylamine)-1-benzosubstituted-β-carboline-3-carboxamide (compound 4a or ANIS-NH2) at doses: 0.5, 1 or 5 mg/kg, or vehicle for 3 days. Similarly, another group of rats received metformin in a 300 mg/kg dose orally for 3 days once a day. The oral glucose tolerance test was done under the administration of a glucose solution (2 g/kg body mass). Glycemia will be determined at the zero (before oral administration) time and 60 minutes after glucose overload.

[2] = tested on: SHR hypertensive rats; test: Plasma cholesterol levels test in SHR hypertensive rats; assay type: in vivo, Male SHR; conditions: 25 days of treatment (15 mg/Kg) oral, effect more pronounced for 5a and 7a
Method: (§2) Distinct rat groups were orally treated, once a day, with 5 mg/kg of compounds 4a or 5a or 6a during the first 4 days, 10 mg/kg during the next 4 days and 15 mg/kg until the end of the treatment period or vehicle (control) for the same days. Similarly, another rat group received metformin (MET) (reference drug used for lowering glucose serum levels) in a 300 mg/kg dose, orally, from day 1 to the end of the treatment. Plasma cholesterol levels were measured in triplicate 12 hours after drug administration by the cholesterol oxidase/peroxidase method (BioSystems S.A, Barcelona, Spain). Blood samples were obtained by femoral vein punction. This method was chosen because of its noninvasive character, enabling daily measurements with the same rats throughout the entire treatment.
Male SHR were provided by Charles River Laboratories (USA). Until the experiments were carried out, the animals have had free access to feed and water. The room temperature was kept at 22±2° C. and the light/dark cycle was of 12 hours. All procedures were submitted to the Animal Experimentation Ethics Committee.
as §2, with “metformin” for “metformin (MET)”, “Blood pressure was” for “Plasma cholesterol levels were”, “4” for “12”, “administration in warmed warmed, restrained, conscious rats” for “administration”, “tail-cuff” for “cholesterol oxidase/peroxidase”, “with a computerized oscillometric system recorder (Nyprem, Cibertec).” for “(BioSystems S.A, Barcelona, Spain). Blood samples were obtained by femoral vein punction.”

[3] = tested on: Drosophila melanogaster (Oregon-R strain); test: Toxicology study: larva-to-adult viability and development time
From the text: The purpose of this study was to test and compare the potential toxic effects of compounds 5a, 6a and 7a on the larva-to-adult viability and development time in a Drosophila melanogaster (Oregon-R) flies. These studies have a relevant predictive role with the aim to anticipate possible adverse toxicological effects that may happen during preclinical studies with animal, preferably mammals. In addition, the data provided are highly quantitative.
Drosophila melanogaster (Oregon-R) flies were obtained by the University of the Balearic Islands (Spain). […] The larvae were seeded on standard food supplemented with the appropriate dose of compounds tested. Each compound was tested at 1, 10, 100, 1000 and 2000 μg/ml dissolved in standard food.
Fly adults were transferred from the serial transfer system to bottles with fresh food for 24 h. Adults 5 days old were placed on egg collecting devices (layers) containing a mixture of agar, water, acetic acid, and ethyl alcohol, with a drop of active yeast on it. Every 2 h., the layer glasses were changed, in this way, the eggs of a glass have similar age, with a maximum difference of 2 h. among them. The glasses of the layers were kept at 25° C. for at least 22 h. in Petri dishes until larvae hatched. Fifty larvae were picked with a lancet under a stereoscopic microscope and were seeded into 10×2 cm vials with 5 ml food. Vials were supplemented with 4a, 5a and 7a at 1, 10 and 100 μg/ml. As positive control we used cupric acetate (toxic) at 350 μg/ml.
The number of adult flies which emerged from each vial was counted daily until the exhaustion of the culture. The parameters studied were the larvae-to-adult viability (V) and development time.
Viability is expressed as V=NA/NL, where NL is the input number of larvae ([…] in our case) and NA the output number of adults emerging from these NL larvae. Development time was measured in days by the formula DT=ΣNidi/ΣNi where Ni is the number of flies emerging on the day di after the larvae were placed in the medium.
The data are expressed as the mean±SEM values from 3 independent experiments involving triplicate vials at the number of flies indicated.

[4] = tested on: female Swiss mice; test: Acute oral toxicology study in a mice model; assay type: in vivo; conditions: oral 2000 mg/kg single dose, observation for 14 days
Method: The experiments were conducted using female Swiss mice (20-30 g), housed under a 12-h light-dark cycle, with controlled humidity (60-80%), and temperature (22±1° C.). Food and water were freely available to the mice.
Female mice (n=6) were orally (2000 mg/kg) administered with a single dose of 4a, 5a, and 7a for the observation of acute signs of toxicity until 14 days. […] The observations comprised the behavior and manifestations of the toxic symptoms, and were carried out according to the Guidelines of the Organization for Economic Cooperation and Development (OECD, 2008).
All compounds were dissolved in sterile saline and were administered by oral gavage to mice based in the weight, for example 20 g received 20 μL.
The data are expressed as mean±S.E.M. of experiments. Statistical significance was determined through one-way analysis of variances (ANOVA), followed by either Newman-Keuls test. A p<0.05 was considered statistically significant. Graphs were drawn and statistical analysis was carried out using GraphPad Prism version 5.00 for Windows (GraphPad Software, San Diego, Calif., USA).

[5] = tested on: normoglycemic rats; test: Oral glucose tolerance test in normoglycemic rats (Examples 36, 37); assay type: in vivo, Male Wistar rats; conditions: 10 mg/kg orally, single dose per day
Method: as §1, with “rats (200-300 g)” for “rats”, “C. with controlled humidity (60-80%)” for “C.”
The glucose tolerance test was evaluated as described by Al-Awaki et al (6).
Rats were randomly divided into […] groups of four animals that were control group that received only a solution of saline, compound 23b group (10 mg/kg), compound 21a group (10 mg/kg) and metformin 300 mg/kg group. Respective treatments were made orally and daily for five days.
(§3) On day 1, 3, and 5, different groups of rats were fasted overnight (at least 12 h) prior to the test, but with given water ad libitum. The oral glucose tolerance test was carried out by administering of a glucose solution (2 g/kg body weight) according to Al-Awadi et al (6). Glycemia was determined in blood samples collected from the tail vein at −30 minutes (just before the administration of the oral extract) time 0 (prior to the glucose overload) and at 60 minutes after the glucose overload. Serum glucose concentrations were measured by the glucose oxidase method (7) using commercial kit (Accuchek-performa (Roche)) according to the manufacture's instructions.
as §1, with “rats (200-300 g)” for “rats”, “C. with controlled humidity (60-80%)” for “C.”, “hours. All procedures were submitted to the Animal Experimentation Ethics Committee.” for “hours.”
The compounds 21b, 23a and 23d were diluted firstly in 20 μl of ethanol and after in 980 μl de saline. Compounds 21e, 23e and 26b were dissolved in sterile saline and were administered by oral gavage to rats based in the weight, for example 200 g received 200 μL.
54 rats were randomly divided into […] groups of five-eight animals that were control group (n=8) that received only a solution of vehicle, compound 21b group (n=5) (10 mg/kg), compound 21e group (n=5) (10 mg/kg), compound 23e group (n=5) (10 mg/kg), compound 23a group (n=5) (10 mg/kg), compound 23d group (n=5) (10 mg/kg), compound 26b group (n=5) (10 mg/kg) and metformin (n=6) 300 mg/kg group. Respective treatments were made orally and daily for five days.
as §3, with “manufactures's” for “manufacture's”

[6] = fifth day, in relation to control group

COc1ccc(-c2nc(C(=O)N/N=C/c3ccccc3)cc3c2[nH]c2ccccc23)cc1 [Compound 7a, 3-(carbohydrazyl-N′-phenylsubstitute)-1-benzosubstitute-β-carbolinic-3-carbohydrazide]
glycemic levels of animals that received an oral glucose overload ([1]; after 3 days, 0.5 mg/kg oral once a day): only the 1 and 5 mg/kg doses reduced statistically significant the glycemic levels
glycemic levels of animals that received an oral glucose overload ([1]; after 3 days, 1 mg/kg oral once a day): reduced statistically significant the glycemic levels
glycemic levels of animals that received an oral glucose overload ([1]; after 3 days, 5 mg/kg oral once a day, 5 mg/kg): reduces the glycemic levels; also recorded: reduced statistically significant the glycemic levels
glycemic levels of animals that received an oral glucose overload ([1]; first day, 5 mg/kg oral, 60 min after glucose 2 g/kg): reduces the glycemic levels
plasma cholesterol levels [2]: inhibition of plasma cholesterol levels
larvae-to-adult viability and development time ([3]; in vivo): not affected
mortality or behavioral disorders (acute signs of toxicity) [4]: did not produce mortality or any behavioral disorders

COc1ccc(-c2nc(C(=O)NCCN(C)C)cc3c2[nH]c2ccccc23)cc1 [Compound 23b, N-(2-dimethylaminoethyl)-1-(4-methoxyphenyl)-9H-pyrido[3,4-b]indole-3-carboxamide hydrochloride]
glucose levels in oral glucose tolerance test [5, 6]: reduced the glucose levels
glucose levels in oral glucose tolerance test ([5]; third day): significant reduction in glucose levels

CC(=O)[O-].CC(=O)[O-].[Cu+2] [Cupric acetate, cupric acetate, reference compound]
Larva-to-adult viability (% emerged adult flies) ([3]; 350 μg/ml, positive control (toxic)): 0%

Cl.NCCNC(=O)c1cc2c([nH]c3ccccc32)c(-c2ccc(Cl)cc2)n1 [Compound 21b, N-(2-aminoethyl)-1-(4-chlorophenyl)-9H-pyrido[3,4-b]indole-3-carboxamide]
glucose levels in oral glucose tolerance test [5, 6]: reduced the glucose levels

COc1ccc(-c2nc(C(=O)N3CCOCC3)cc3c2[nH]c2ccccc23)cc1.Cl [Compound 23a, [1-(4-methoxyphenyl)-9H-pyrido[3,4-b]indol-3-yl]-4-morpholinyl-Methanone Hydrochloride]
glucose levels in oral glucose tolerance test ([5]; first day): significant reduction in glucose levels

COc1ccc(-c2nc(C(=O)NCCO)cc3c2[nH]c2ccccc23)cc1.Cl [Compound 23d, N-(2-hydroxyethyl)-1-(4-methoxyphenyl)-9H-pyrido[3,4-b]indole-3-carboxamide hydrochloride]
glucose levels in oral glucose tolerance test [5, 6]: reduced the glucose levels

COc1ccc(-c2nc(C(=O)NCCCCN)cc3c2[nH]c2ccccc23)cc1.Cl [Compound 23e, N-(4-aminobutyl)-1-(4-methoxyphenyl)-9H-pyrido[3,4-b]indole-3-carboxamide hydrochloride]
glucose levels in oral glucose tolerance test [5, 6]: reduced the glucose levels
glucose levels in oral glucose tolerance test ([5]; first day): significant reduction in glucose levels
glucose levels in oral glucose tolerance test ([5]; third day): significant reduction in glucose levels

— patent US9440966B2, “Compounds for treatment of metabolic syndrome” (SJT MOLECULAR RESEARCH, S.L., priority 2011, dated 2016)
